Among the test systems are DLD-1 colon; DMS 114 small cell lung; M19-MEL melanoma; SNB-78 CNS; RXF-631 renal; XF 498 CNS; MDA-N; P388 leukemia; P388/ADR leukemia; SN12K1 renal.
Holding throughout (experiment): NCI tumour cell line growth inhibition, 48 h

SMILES strings stand for the structures.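 Method: 48-hour compound exposure of cells in 96-well plates, five concentrations, linear interpolation of endpoints. TGI marks complete inhibition of growth.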

Turning to `O=C(Nc1ccc(Cl)cc1Cl)C1C(=O)C(=O)N(c2ccc(Cl)cc2Cl)C1=O` (configuration not stated), the TGI with DLD-1 colon, in the experiment on DMS 114 small cell lung, in the experiment on M19-MEL melanoma and with SNB-78 CNS was > 100 µM throughout.
In the case of `Cc1cccc(C)c1CO`, the TGI with DLD-1 colon, with DMS 114 small cell lung, with M19-MEL melanoma, with RXF-631 renal, in the experiment with SNB-78 CNS and in the experiment on XF 498 CNS was > 100 µM throughout.
As to `CC(=O)OC1CCn2nnc(CO)c21` (configuration not stated), the TGI with DLD-1 colon, with DMS 114 small cell lung, with M19-MEL melanoma, in the experiment on SNB-78 CNS and in the experiment on XF 498 CNS was > 100 µM each time.
In turn, `CNC/C(Cl)=N/S(=O)(=O)c1ccc(C)cc1` had a TGI in the experiment on MDA-N of 29.5 µM.
As to `CCOC(=O)NC1C2CC(=O)OC(O2)C1OC(C)=O` (configuration not stated), the TGI with DLD-1 colon, with M19-MEL melanoma, in the experiment on RXF-631 renal and in the experiment on SNB-78 CNS was > 100 µM each time.
`COc1ccc(C(=O)C(C(=O)CC(=O)Nc2cccc(C(F)(F)F)c2)c2ccc(OC)cc2)cc1` (configuration not stated): the TGI in the experiment with DLD-1 colon, with DMS 114 small cell lung, with M19-MEL melanoma, in the experiment on RXF-631 renal, in the experiment on SNB-78 CNS and with XF 498 CNS was > 100 µM each time.
Take `C[C@]12CC[C@H](OC3OC(CO)C(O)C(O)C3O)C[C@H]1CC[C@@H]1[C@@H]2CC[C@]2(C)[C@@H](C3=CCOC3=O)CC[C@]12O` (some centres not stated): the TGI in the experiment on DLD-1 colon is > 50 µM; in the experiment on DMS 114 small cell lung, 50 µM; with M19-MEL melanoma it was 37.9 µM; in the experiment on MDA-N, > 100 µM; with P388 leukemia it was 20.9 µM; in the experiment with P388/ADR leukemia, 50 µM. In addition, the TGI was determined as 41.5 µM in the experiment on SN12K1 renal, 50 µM with SNB-78 CNS and 11.2 µM in the experiment with XF 498 CNS.
For `O=C1C=CC(=O)C12CCc1ccccc12`, the TGI with DLD-1 colon, in the experiment with DMS 114 small cell lung, in the experiment on M19-MEL melanoma, in the experiment on RXF-631 renal, in the experiment on SNB-78 CNS and with XF 498 CNS was > 100 µM each time.
As for `Cn1nc(-c2ccccc2)c(C(=O)/C=C/c2ccc(Cl)cc2)c(N2CCCCC2)c1=O`, the TGI turned out to be 7.08 µM in the experiment with DLD-1 colon; 4.37 µM in the experiment with DMS 114 small cell lung; 5.07 µM with M19-MEL melanoma; 9.79 µM with RXF-631 renal; 3.91 µM in the experiment on XF 498 CNS.
For `COc1ccc(NC(=O)CC/C(CC(=O)C(C)(C)C)=N\NC(=O)C(=O)NN)cc1`, the TGI in the experiment on DLD-1 colon, with DMS 114 small cell lung, with M19-MEL melanoma, in the experiment with RXF-631 renal and in the experiment with SNB-78 CNS was > 100 µM in each case.
Take `COC(=O)C1=C(O)c2cc(-c3ccccc3)c(-c3ccccc3)c(C#N)c2NC(=O)C1`: the TGI with DLD-1 colon was > 100 µM; in the experiment with DMS 114 small cell lung, > 100 µM; in the experiment with M19-MEL melanoma it was > 100 µM; with RXF-631 renal, 41 µM; in the experiment with SNB-78 CNS, > 100 µM; in the experiment on XF 498 CNS it was > 100 µM.
`COc1cc(OC)c(SSCCCCS(=O)O)c(OC)c1`: the TGI was 41.1 µM in the experiment on DLD-1 colon; 39 µM with DMS 114 small cell lung; 22.9 µM in the experiment with M19-MEL melanoma; 29.4 µM in the experiment with SNB-78 CNS; 27.6 µM with XF 498 CNS.
Regarding `CC1=C[C@]2(O)C(=O)[C@H](C)C[C@H]3[C@@H](CC[C@@](C)(O)/C=C\2C1=O)C3(C)C`, the TGI with DLD-1 colon was 34.9 µM; in the experiment on DMS 114 small cell lung, > 53.9 µM; in the experiment with M19-MEL melanoma, 33.4 µM; in the experiment with RXF-631 renal, > 74.3 µM; in the experiment with SNB-78 CNS, 82.5 µM; in the experiment with XF 498 CNS, 32.8 µM.
As for `COc1ccccc1C(O)(c1ccccc1)C(O)(c1ccccc1)c1ccccc1OC` (configuration not stated), the TGI in the experiment with DLD-1 colon, in the experiment with DMS 114 small cell lung, in the experiment on M19-MEL melanoma, with RXF-631 renal, in the experiment on SNB-78 CNS and in the experiment on XF 498 CNS was > 100 µM each time.
With `C=C1C(C2(C)C(OC(C)=O)CC(=O)OC(C)(COC(C)=O)C2CC(=O)OC)C(OC=O)C(OC(=O)C(O)C(C)CC)C2(C)C(c3ccoc3)CC(=O)C12O` (configuration not stated), in the experiment with MDA-N, the TGI was > 100 µM.
Take `O=C(c1ccccc1)c1c(-c2ccccc2)sc2nc3ccccc3nc12`: the TGI in the experiment on DMS 114 small cell lung, in the experiment with M19-MEL melanoma, with SNB-78 CNS and in the experiment on XF 498 CNS was > 100 µM in each case.
As to `NC(=O)CCC(Nc1c2ccccc2nc2ccccc12)C(=O)O` (configuration not stated), the TGI in the experiment on DLD-1 colon, with M19-MEL melanoma and in the experiment with RXF-631 renal was > 100 µM in each case.
As for `NC[C@H]1Nc2ccccc2[C@@H](O)C1O` (some centres not stated), in the experiment on MDA-N, the TGI was > 100 µM.
Consider `O=C(O)Cc1cc(=O)[nH]c2c1/C(=N/O)CCC2`, for which the TGI in the experiment on DLD-1 colon and in the experiment on XF 498 CNS was > 100 µM in each case.
Turning to `O=C(CCc1nnc2s/c(=C\c3ccc(Cl)c(Cl)c3)c(=O)n12)Nc1ccc(Cl)c(Cl)c1`, the TGI in the experiment on DMS 114 small cell lung, in the experiment on M19-MEL melanoma and with XF 498 CNS was > 100 µM throughout.
For `COc1ccc(-c2cc(=O)c3ccccc3o2)cc1N`, the TGI in the experiment on DMS 114 small cell lung is > 100 µM; with M19-MEL melanoma, > 100 µM; with RXF-631 renal, > 100 µM; in the experiment with SNB-78 CNS, > 100 µM; with XF 498 CNS, 91.1 µM.
With `CCN(CC)CCCNC(=O)C1COc2cc(-c3cc(=O)c4ccccc4o3)ccc2O1` (configuration not stated), the TGI in the experiment with DLD-1 colon is > 100 µM; in the experiment on DMS 114 small cell lung, 50.9 µM; in the experiment on M19-MEL melanoma, 76.4 µM; with RXF-631 renal, > 100 µM; in the experiment on SNB-78 CNS, > 100 µM.
Turning to `CC(=O)c1cccc(C)c1C(=O)O`, the TGI in the experiment on DLD-1 colon, with DMS 114 small cell lung, with M19-MEL melanoma and with SNB-78 CNS was > 100 µM in each case.
With `c1ccc2c(NCCCCCCNc3c4ccccc4nc4ccccc34)c3ccccc3nc2c1`, the TGI was 3.29 µM with DLD-1 colon; 2 µM in the experiment with DMS 114 small cell lung; 2.48 µM with M19-MEL melanoma; 1.62 µM in the experiment with MDA-N; 2.72 µM with XF 498 CNS.
Take `CCOC(=O)/C(=C\c1ccc(N(CCC#N)CCC#N)cc1)NC(=O)c1cc([N+](=O)[O-])ccc1Cl`: the TGI with DLD-1 colon, in the experiment on DMS 114 small cell lung, with M19-MEL melanoma, with RXF-631 renal and in the experiment with SNB-78 CNS was > 100 µM in each case.
For the compound `CC1=C(C(=O)Nc2cc(=O)n(C)c(=O)n2C)C(c2cccc([N+](=O)[O-])c2)C(C(=O)Nc2cc(=O)n(C)c(=O)n2C)=C(C)N1`, the TGI in the experiment with DLD-1 colon, with DMS 114 small cell lung, in the experiment on M19-MEL melanoma and with SNB-78 CNS was > 100 µM throughout.
On to `O=C1[C@H]2ON(c3ccccc3)C(c3ccccc3)[C@H]2C(=O)N1c1ccc(Cc2ccc(N3C(=O)[C@@H]4ON(c5ccccc5)C(c5ccccc5)[C@@H]4C3=O)cc2)cc1` (some centres not stated), for which the TGI in the experiment with DLD-1 colon, in the experiment with DMS 114 small cell lung, with RXF-631 renal and in the experiment on SNB-78 CNS was > 100 µM each time.
Turning to `O=C1O/C(=C\c2ccccc2)N(c2ccccc2)C1=O`, the TGI in the experiment on MDA-N is > 100 µM.
On to `O=C1Cc2c([nH]c3ccccc23)-c2ccccc2N1`, for which the TGI was > 100 µM in the experiment on DLD-1 colon, > 100 µM in the experiment with M19-MEL melanoma, > 100 µM in the experiment with SNB-78 CNS and 91.8 µM with XF 498 CNS.
As for `C=C(C#N)C1OCC2OC(C)(C)OC21` (configuration not stated), the TGI in the experiment on DLD-1 colon was 34.4 µM; in the experiment on DMS 114 small cell lung it was 57.2 µM; with M19-MEL melanoma, 61.8 µM; in the experiment with RXF-631 renal, 35.8 µM; in the experiment on SNB-78 CNS, 43 µM.
As to `O=C1O[C@H](c2ccccc2)[C@@H]2CC3(CCN12)OCCO3`, the TGI in the experiment with RXF-631 renal and in the experiment on XF 498 CNS was > 100 µM each time.
In the case of `CCOC(=O)Cc1ccc2c(c1O)C(=O)c1c(ccc(CC(=O)OCC)c1O)C2=O`, the TGI in the experiment with DLD-1 colon, with DMS 114 small cell lung, in the experiment on M19-MEL melanoma, in the experiment with SNB-78 CNS and in the experiment on XF 498 CNS was > 100 µM each time.
Turning to `Cc1cc(=O)oc2c(C)c(O)ccc12`, the TGI in the experiment on MDA-N is > 100 µM.
As for `C[C@]12CCC(=O)C(O)=C1CC[C@@H]1C2CC[C@]2(C)NC(=O)CCC12` (some centres not stated), the TGI in the experiment with DMS 114 small cell lung, in the experiment on M19-MEL melanoma, in the experiment with RXF-631 renal, with SNB-78 CNS and with XF 498 CNS was > 100 µM throughout.
On to `COc1ccc(/C(=N\NC(=O)C(=O)NN)C(c2ccc(OC)cc2)C2(O)C(=O)Nc3ccccc32)cc1` (configuration not stated), for which the TGI in the experiment on DLD-1 colon, with DMS 114 small cell lung, in the experiment on M19-MEL melanoma, in the experiment on RXF-631 renal, in the experiment with SNB-78 CNS and in the experiment with XF 498 CNS was > 100 µM each time.
For `O=C1c2ccccc2-c2oc(=O)c3ccccc3c21`, in the experiment with MDA-N, the TGI is > 100 µM.
`O=c1ccs[nH]1`: the TGI in the experiment on MDA-N was found to be 60.2 µM.
Turning to `CN(C)CCNC(=O)c1cccc2nc3cc(Cl)ccc3nc12`, the TGI amounted to 20.3 µM in the experiment with DLD-1 colon, 6.69 µM with DMS 114 small cell lung, 3.89 µM in the experiment with M19-MEL melanoma and 10.5 µM in the experiment on SNB-78 CNS.
As to `CC(=O)CC(N)=O`, the TGI in the experiment on DLD-1 colon, in the experiment with DMS 114 small cell lung, in the experiment on M19-MEL melanoma, in the experiment on RXF-631 renal, in the experiment with SNB-78 CNS and in the experiment on XF 498 CNS was > 100 µM in each case.
In the case of `COc1ccc2c3c([nH]c2c1[N+](=O)[O-])C(C)N(Cc1ccc([N+](=O)[O-])cc1)CC3` (configuration not stated), the TGI in the experiment on SNB-78 CNS was > 100 µM.
